{"source": "patent US11197933B2", "about": "“Polysubunit opioid prodrugs resistant to overdose and abuse” (Elysium Therapeutics, Inc., priority 2017, dated 2021)", "key": {"trypsin [1]": {"molecular_target": "T1, trypsin (Bos taurus, UniProt P00760)", "T1 construct": "gene PRSS1", "T1 sequence (P00760 24-246)": "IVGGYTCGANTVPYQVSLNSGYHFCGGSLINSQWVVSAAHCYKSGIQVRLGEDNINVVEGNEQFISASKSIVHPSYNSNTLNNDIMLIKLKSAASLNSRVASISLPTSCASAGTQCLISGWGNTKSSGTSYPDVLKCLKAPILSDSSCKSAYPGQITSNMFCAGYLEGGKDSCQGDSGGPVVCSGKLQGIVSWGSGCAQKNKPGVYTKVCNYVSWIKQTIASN", "test": "Trypsin inhibitory potency (key differentiating attributes, Table 5)", "assay_type": "biochemical", "from_the_text": "(§1) As mentioned previously, a wide range of targeted oral pharmacokinetic profiles can be achieved by administering pharmaceutical compositions containing specific combinations of different polysubunit molecules to subjects. For example, the different polysubunit molecules contained in the composition may differ with regard to (i) the specific opioid agonists delivered, (ii) the rates at which the opioid agonist is delivered in vivo (i.e. to modify the oral pharmacokinetic profile of the delivered opioid), and (iii) the combined inhibitory potency of the GI enzyme inhibiting subunits [i.e. to modify the overdose protection profile and/or the prescribed dose strengths of the delivered opioid agonist(s)]. Table 5 below provides non-limiting examples of compounds of the invention with their key differentiating attributes. Table 6 discusses scenarios and rationales for using the compounds presented in Table 5 in combination with each other, in useful pharmaceutical formulations of the invention."}, "trypsin [2]": {"molecular_target": "T1, trypsin", "test": "Inhibition of trypsin-catalyzed hydrolysis of BANA (percent BANA remaining vs. time)", "assay_type": "biochemical", "conditions": "for Ability to inhibit trypsin (result in words): increasing concentrations, BANA substrate", "procedure": "This example describes in vitro experiments with a compound of the disclosure to provide a mechanism of overdose protection.\nThe effect of increasing concentrations of compounds II-D-11, II-D-23, II-D-71c and II-D-71b on the rate and extent of the trypsin-catalyzed hydrolysis of a commercially available trypsin substrate Nα-Benzoyl-L-arginine 4-nitroanilide hydrochloride (BANA) was evaluated in the presence of trypsin (2,000 BAEE activity) in a pH 7.4 phosphate buffer at 37° C. in vitro. Both buffer solution alone (i.e. no trypsin) and trypsin containing buffer solution (i.e. no test compounds) controls were run contemporaneously."}, "[3]": {"test": "Rate of release of opioid agonist (key differentiating attributes, Table 5)", "conditions": "for Rate of Release of Opioid Against: in words (Fast/Slow); for half-life: read-out: Rate of Release of Opioid Against: T1/2", "from_the_text": "as §1"}, "[4]": {"conditions": "after oral doses; cited from earlier work"}, "[5]": {"conditions": "in man; cited from earlier work"}}, "data": [{"smiles": "COc1ccc2c3c1O[C@H]1C(OC(=O)N4CCC(C(=O)NCCCC[C@H](NC(=O)OCc5ccccc5)C(=O)NCCOc5ccc(C(=O)Oc6cccc(NC(=N)N)c6)cc5)CC4CNC(=O)[C@@H](CCCNC(=N)N)NC(=O)CNC(C)=O)=CC[C@H]4[C@@H](C2)N(C)CC[C@]314", "note": "(stereo partly drawn) [II-D-71b]", "values": [{"measurement": "Trypsin Inhibitory Potency", "setting": "trypsin [1]", "result": "Low"}, {"measurement": "Percent BANA remaining", "setting": "trypsin [2]; compound 10 uM, 2 minutes, trypsin 2,000 BAEE activity, pH 7.4 phosphate buffer, 37° C.", "result": 87.9, "unit": "%"}, {"measurement": "Percent BANA remaining", "setting": "trypsin [2]; compound 10 uM, 13 minutes, trypsin 2,000 BAEE activity, pH 7.4 phosphate buffer, 37° C.", "result": 0, "unit": "%"}, {"measurement": "Percent BANA remaining", "setting": "trypsin [2]; compound 10 uM, 24 minutes, trypsin 2,000 BAEE activity, pH 7.4 phosphate buffer, 37° C.", "result": 0, "unit": "%"}, {"measurement": "Percent BANA remaining", "setting": "trypsin [2]; compound 10 uM, 35 minutes, trypsin 2,000 BAEE activity, pH 7.4 phosphate buffer, 37° C.", "result": 0, "unit": "%"}, {"measurement": "Percent BANA remaining", "setting": "trypsin [2]; compound 10 uM, 46 minutes, trypsin 2,000 BAEE activity, pH 7.4 phosphate buffer, 37° C.", "result": 0, "unit": "%"}, {"measurement": "Percent BANA remaining", "setting": "trypsin [2]; compound 10 uM, 57 minutes, trypsin 2,000 BAEE activity, pH 7.4 phosphate buffer, 37° C.", "result": 0, "unit": "%"}, {"measurement": "Percent BANA remaining", "setting": "trypsin [2]; compound 10 uM, 68 minutes, trypsin 2,000 BAEE activity, pH 7.4 phosphate buffer, 37° C.", "result": 0, "unit": "%"}, {"measurement": "Percent BANA remaining", "setting": "trypsin [2]; compound 100 uM, 2 minutes, trypsin 2,000 BAEE activity, pH 7.4 phosphate buffer, 37° C.", "result": 93.1, "unit": "%"}, {"measurement": "Percent BANA remaining", "setting": "trypsin [2]; compound 100 uM, 13 minutes, trypsin 2,000 BAEE activity, pH 7.4 phosphate buffer, 37° C.", "result": 15.1, "unit": "%"}, {"measurement": "Percent BANA remaining", "setting": "trypsin [2]; compound 100 uM, 24 minutes, trypsin 2,000 BAEE activity, pH 7.4 phosphate buffer, 37° C.", "result": 2.4, "unit": "%"}, {"measurement": "Percent BANA remaining", "setting": "trypsin [2]; compound 100 uM, 35 minutes, trypsin 2,000 BAEE activity, pH 7.4 phosphate buffer, 37° C.", "result": 2.3, "unit": "%"}, {"measurement": "Percent BANA remaining", "setting": "trypsin [2]; compound 100 uM, 46 minutes, trypsin 2,000 BAEE activity, pH 7.4 phosphate buffer, 37° C.", "result": 1.4, "unit": "%"}, {"measurement": "Percent BANA remaining", "setting": "trypsin [2]; compound 100 uM, 57 minutes, trypsin 2,000 BAEE activity, pH 7.4 phosphate buffer, 37° C.", "result": 0, "unit": "%"}, {"measurement": "Percent BANA remaining", "setting": "trypsin [2]; compound 100 uM, 68 minutes, trypsin 2,000 BAEE activity, pH 7.4 phosphate buffer, 37° C.", "result": 0, "unit": "%"}, {"measurement": "Percent BANA remaining", "setting": "trypsin [2]; compound 1 mM, 2 minutes, trypsin 2,000 BAEE activity, pH 7.4 phosphate buffer, 37° C.", "result": 100, "unit": "%"}, {"measurement": "Percent BANA remaining", "setting": "trypsin [2]; compound 1 mM, 13 minutes, trypsin 2,000 BAEE activity, pH 7.4 phosphate buffer, 37° C.", "result": 76.1, "unit": "%"}, {"measurement": "Percent BANA remaining", "setting": "trypsin [2]; compound 1 mM, 24 minutes, trypsin 2,000 BAEE activity, pH 7.4 phosphate buffer, 37° C.", "result": 66.6, "unit": "%"}, {"measurement": "Percent BANA remaining", "setting": "trypsin [2]; compound 1 mM, 35 minutes, trypsin 2,000 BAEE activity, pH 7.4 phosphate buffer, 37° C.", "result": 59.6, "unit": "%"}, {"measurement": "Percent BANA remaining", "setting": "trypsin [2]; compound 1 mM, 46 minutes, trypsin 2,000 BAEE activity, pH 7.4 phosphate buffer, 37° C.", "result": 56.3, "unit": "%"}, {"measurement": "Percent BANA remaining", "setting": "trypsin [2]; compound 1 mM, 57 minutes, trypsin 2,000 BAEE activity, pH 7.4 phosphate buffer, 37° C.", "result": 55.7, "unit": "%"}, {"measurement": "Percent BANA remaining", "setting": "trypsin [2]; compound 1 mM, 68 minutes, trypsin 2,000 BAEE activity, pH 7.4 phosphate buffer, 37° C.", "result": 53.7, "unit": "%"}, {"measurement": "Ability to inhibit trypsin (result in words)", "setting": "trypsin [2]; pH 7.4, 37° C.", "result": "progressively inhibit trypsin in a concentration dependent manner"}, {"measurement": "Rate of Release of Opioid Against", "setting": "[3]", "result": "Fast"}, {"measurement": "half-life", "setting": "[3]", "result": "~10", "unit": "min"}]}, {"smiles": "COc1ccc2c3c1O[C@H]1C(OC(=O)N4CCC(C(=O)NCCCC[C@H](NC(=O)OCc5ccccc5)C(=O)NCCOc5ccc(C(=O)Oc6ccc(NC(=N)N)cc6)cc5)CC4CNC(=O)[C@@H](CCCNC(=N)N)NC(=O)CNC(C)=O)=CC[C@H]4[C@@H](C2)N(C)CC[C@]314", "note": "(stereo partly drawn) [II-D-71c]", "values": [{"measurement": "Trypsin Inhibitory Potency", "setting": "trypsin [1]", "result": "High"}, {"measurement": "Percent BANA remaining", "setting": "trypsin [2]; 1 uM compound, 2 minutes, pH 7.4, 37° C.", "result": 81.5, "unit": "%"}, {"measurement": "Percent BANA remaining", "setting": "trypsin [2]; 1 uM compound, 13 minutes, pH 7.4, 37° C.", "result": 0, "unit": "%"}, {"measurement": "Percent BANA remaining", "setting": "trypsin [2]; 1 uM compound, 24 minutes, pH 7.4, 37° C.", "result": 0, "unit": "%"}, {"measurement": "Percent BANA remaining", "setting": "trypsin [2]; 1 uM compound, 35 minutes, pH 7.4, 37° C.", "result": 0, "unit": "%"}, {"measurement": "Percent BANA remaining", "setting": "trypsin [2]; 1 uM compound, 46 minutes, pH 7.4, 37° C.", "result": 0, "unit": "%"}, {"measurement": "Percent BANA remaining", "setting": "trypsin [2]; 1 uM compound, 57 minutes, pH 7.4, 37° C.", "result": 0, "unit": "%"}, {"measurement": "Percent BANA remaining", "setting": "trypsin [2]; 1 uM compound, 68 minutes, pH 7.4, 37° C.", "result": 0, "unit": "%"}, {"measurement": "Percent BANA remaining", "setting": "trypsin [2]; 10 uM compound, 2 minutes, pH 7.4, 37° C.", "result": 76.5, "unit": "%"}, {"measurement": "Percent BANA remaining", "setting": "trypsin [2]; 10 uM compound, 13 minutes, pH 7.4, 37° C.", "result": 58.5, "unit": "%"}, {"measurement": "Percent BANA remaining", "setting": "trypsin [2]; 10 uM compound, 24 minutes, pH 7.4, 37° C.", "result": 42.5, "unit": "%"}, {"measurement": "Percent BANA remaining", "setting": "trypsin [2]; 10 uM compound, 35 minutes, pH 7.4, 37° C.", "result": 26.0, "unit": "%"}, {"measurement": "Percent BANA remaining", "setting": "trypsin [2]; 10 uM compound, 46 minutes, pH 7.4, 37° C.", "result": 13.0, "unit": "%"}, {"measurement": "Percent BANA remaining", "setting": "trypsin [2]; 10 uM compound, 57 minutes, pH 7.4, 37° C.", "result": 4.7, "unit": "%"}, {"measurement": "Percent BANA remaining", "setting": "trypsin [2]; 10 uM compound, 68 minutes, pH 7.4, 37° C.", "result": 0, "unit": "%"}, {"measurement": "Percent BANA remaining", "setting": "trypsin [2]; 100 uM compound, 2 minutes, pH 7.4, 37° C.", "result": 100, "unit": "%"}, {"measurement": "Percent BANA remaining", "setting": "trypsin [2]; 100 uM compound, 13 minutes, pH 7.4, 37° C.", "result": 100, "unit": "%"}, {"measurement": "Percent BANA remaining", "setting": "trypsin [2]; 100 uM compound, 24 minutes, pH 7.4, 37° C.", "result": 99, "unit": "%"}, {"measurement": "Percent BANA remaining", "setting": "trypsin [2]; 100 uM compound, 35 minutes, pH 7.4, 37° C.", "result": 100, "unit": "%"}, {"measurement": "Percent BANA remaining", "setting": "trypsin [2]; 100 uM compound, 46 minutes, pH 7.4, 37° C.", "result": 100, "unit": "%"}, {"measurement": "Percent BANA remaining", "setting": "trypsin [2]; 100 uM compound, 57 minutes, pH 7.4, 37° C.", "result": 100, "unit": "%"}, {"measurement": "Percent BANA remaining", "setting": "trypsin [2]; 100 uM compound, 68 minutes, pH 7.4, 37° C.", "result": 100, "unit": "%"}, {"measurement": "Percent BANA remaining", "setting": "trypsin [2]; 1 mM compound, 2 minutes, pH 7.4, 37° C.", "result": 100, "unit": "%"}, {"measurement": "Percent BANA remaining", "setting": "trypsin [2]; 1 mM compound, 13 minutes, pH 7.4, 37° C.", "result": 100, "unit": "%"}, {"measurement": "Percent BANA remaining", "setting": "trypsin [2]; 1 mM compound, 24 minutes, pH 7.4, 37° C.", "result": 99, "unit": "%"}, {"measurement": "Percent BANA remaining", "setting": "trypsin [2]; 1 mM compound, 35 minutes, pH 7.4, 37° C.", "result": 100, "unit": "%"}, {"measurement": "Percent BANA remaining", "setting": "trypsin [2]; 1 mM compound, 46 minutes, pH 7.4, 37° C.", "result": 100, "unit": "%"}, {"measurement": "Percent BANA remaining", "setting": "trypsin [2]; 1 mM compound, 57 minutes, pH 7.4, 37° C.", "result": 100, "unit": "%"}, {"measurement": "Percent BANA remaining", "setting": "trypsin [2]; 1 mM compound, 68 minutes, pH 7.4, 37° C.", "result": 100, "unit": "%"}, {"measurement": "Ability to inhibit trypsin (result in words)", "setting": "trypsin [2]; pH 7.4, 37° C.", "result": "progressively inhibit trypsin in a concentration dependent manner"}, {"measurement": "Rate of Release of Opioid Against", "setting": "[3]", "result": "Fast"}, {"measurement": "half-life", "setting": "[3]", "result": "~10", "unit": "min"}]}, {"smiles": "C[C@H]1[C@H]2Cc3ccc(O)cc3[C@]1(C)CCN2CC1CC1", "note": "[cyclazocine]", "values": [{"measurement": "Duration of action", "setting": "[4]", "result": "~24", "unit": "h"}]}, {"smiles": "O=C1CC[C@@]2(O)[C@H]3Cc4ccc(O)c5c4[C@@]2(CCN3CC2CC2)[C@H]1O5", "note": "[naltrexone, Naltrexone]", "values": [{"measurement": "Oral bioavailability", "setting": "[5]", "result": "5-40%"}, {"measurement": "Duration of action", "setting": "[4]", "result": "~24", "unit": "h"}]}]}
